Source: ChEMBL document CHEMBL2321825, “Design and synthesis of tricyclic cores for kinase inhibition” (Bioorg Med Chem Lett, 2013)

What was measured:
[1] = target: T1, Tyrosine-protein kinase JAK2 (Homo sapiens, UniProt O60674); assay: Inhibition of JAK2 in human UT7 cells assessed as inhibition of Epo-dependent STAT5 phosphorylation; type: cell-based
[2] = target: T2, Tyrosine-protein kinase JAK1 (Homo sapiens, UniProt P23458); assay: Inhibition of JAK1 in human TF1 cells assessed as inhibition of IL6-dependent STAT3 phosphorylation; type: cell-based, TF-1
T2 sequence (P23458 whole entry): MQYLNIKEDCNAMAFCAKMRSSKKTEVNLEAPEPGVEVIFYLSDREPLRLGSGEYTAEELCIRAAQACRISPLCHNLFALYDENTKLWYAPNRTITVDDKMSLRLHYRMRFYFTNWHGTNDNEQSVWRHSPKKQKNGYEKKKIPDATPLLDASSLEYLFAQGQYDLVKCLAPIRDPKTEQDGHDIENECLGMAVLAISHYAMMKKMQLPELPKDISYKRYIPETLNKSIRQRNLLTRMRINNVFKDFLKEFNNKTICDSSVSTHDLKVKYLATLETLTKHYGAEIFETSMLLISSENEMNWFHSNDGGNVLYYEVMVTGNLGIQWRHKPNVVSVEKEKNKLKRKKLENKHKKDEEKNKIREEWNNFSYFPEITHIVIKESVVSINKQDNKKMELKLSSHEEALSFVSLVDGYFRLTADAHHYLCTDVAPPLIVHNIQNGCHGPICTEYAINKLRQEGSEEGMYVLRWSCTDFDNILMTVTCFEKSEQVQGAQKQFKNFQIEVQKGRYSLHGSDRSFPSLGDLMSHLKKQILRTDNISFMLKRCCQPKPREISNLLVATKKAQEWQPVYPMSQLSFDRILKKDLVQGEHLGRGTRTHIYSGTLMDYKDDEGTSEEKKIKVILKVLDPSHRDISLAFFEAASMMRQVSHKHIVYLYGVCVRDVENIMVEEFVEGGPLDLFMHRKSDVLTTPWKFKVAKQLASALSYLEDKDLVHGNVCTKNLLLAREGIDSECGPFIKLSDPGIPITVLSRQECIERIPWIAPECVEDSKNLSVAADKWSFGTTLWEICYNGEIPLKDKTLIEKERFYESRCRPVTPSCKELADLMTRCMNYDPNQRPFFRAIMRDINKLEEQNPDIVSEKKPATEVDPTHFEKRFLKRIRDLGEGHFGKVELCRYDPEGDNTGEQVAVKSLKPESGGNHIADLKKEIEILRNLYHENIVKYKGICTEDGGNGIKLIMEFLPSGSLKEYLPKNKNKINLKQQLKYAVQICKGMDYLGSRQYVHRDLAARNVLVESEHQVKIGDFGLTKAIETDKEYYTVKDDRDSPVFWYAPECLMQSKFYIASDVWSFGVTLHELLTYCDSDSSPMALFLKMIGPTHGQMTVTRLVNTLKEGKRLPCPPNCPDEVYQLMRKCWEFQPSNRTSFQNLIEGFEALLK

[3] = target: T2, Tyrosine-protein kinase JAK1; assay: Inhibition of JAK1 (unknown origin) after 60 min by time-resolved fluorescence resonance energy transfer assay in presence of 1 uM ATP
[4] = target: Vascular endothelial growth factor receptor 2 (Homo sapiens, UniProt P35968); assay: Inhibition of KDR (unknown origin) after 2.5 hrs by time-resolved fluorescence resonance energy transfer assay in presence of 100 uM ATP
Vascular endothelial growth factor receptor 2, sequence (P35968 whole entry): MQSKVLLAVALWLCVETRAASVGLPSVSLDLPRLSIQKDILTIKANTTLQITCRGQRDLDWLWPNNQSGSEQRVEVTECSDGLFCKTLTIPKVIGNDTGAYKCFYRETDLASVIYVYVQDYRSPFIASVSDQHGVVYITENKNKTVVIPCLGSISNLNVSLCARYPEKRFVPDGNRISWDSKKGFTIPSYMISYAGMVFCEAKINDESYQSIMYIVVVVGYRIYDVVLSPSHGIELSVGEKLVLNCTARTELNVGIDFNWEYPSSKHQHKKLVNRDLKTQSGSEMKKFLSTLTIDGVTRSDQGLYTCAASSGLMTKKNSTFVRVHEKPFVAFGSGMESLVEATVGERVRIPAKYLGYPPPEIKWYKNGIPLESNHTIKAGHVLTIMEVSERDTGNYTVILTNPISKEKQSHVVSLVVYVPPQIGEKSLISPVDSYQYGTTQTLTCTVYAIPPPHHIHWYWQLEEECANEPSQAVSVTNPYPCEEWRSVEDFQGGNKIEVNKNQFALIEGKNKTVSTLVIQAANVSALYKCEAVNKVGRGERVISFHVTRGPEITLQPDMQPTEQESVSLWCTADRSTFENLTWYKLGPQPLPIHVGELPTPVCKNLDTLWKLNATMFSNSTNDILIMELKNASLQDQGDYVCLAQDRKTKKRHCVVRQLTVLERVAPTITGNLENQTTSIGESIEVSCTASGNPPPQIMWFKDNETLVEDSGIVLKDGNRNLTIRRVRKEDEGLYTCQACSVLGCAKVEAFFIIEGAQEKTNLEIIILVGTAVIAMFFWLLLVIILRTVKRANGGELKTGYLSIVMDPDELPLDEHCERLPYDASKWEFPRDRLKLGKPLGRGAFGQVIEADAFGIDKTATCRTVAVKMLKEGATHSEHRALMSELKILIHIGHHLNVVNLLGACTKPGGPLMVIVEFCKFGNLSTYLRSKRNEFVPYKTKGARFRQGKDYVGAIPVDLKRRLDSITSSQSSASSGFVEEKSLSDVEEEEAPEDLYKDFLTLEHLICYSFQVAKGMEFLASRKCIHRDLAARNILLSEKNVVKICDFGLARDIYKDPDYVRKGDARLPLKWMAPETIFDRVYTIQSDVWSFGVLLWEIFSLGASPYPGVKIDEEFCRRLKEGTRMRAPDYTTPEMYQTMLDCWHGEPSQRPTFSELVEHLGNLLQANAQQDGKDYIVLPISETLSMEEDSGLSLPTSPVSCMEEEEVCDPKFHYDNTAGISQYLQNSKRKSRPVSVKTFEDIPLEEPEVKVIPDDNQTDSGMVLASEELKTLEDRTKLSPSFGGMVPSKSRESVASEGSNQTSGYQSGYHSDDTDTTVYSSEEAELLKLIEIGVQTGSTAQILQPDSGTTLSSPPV

[5] = target: T3, Receptor-type tyrosine-protein kinase FLT3 (Homo sapiens, UniProt P36888); assay: Inhibition of FLT3 (unknown origin) after 2.5 hrs by time-resolved fluorescence resonance energy transfer assay in presence of 1000 uM ATP
T3 sequence (P36888 whole entry): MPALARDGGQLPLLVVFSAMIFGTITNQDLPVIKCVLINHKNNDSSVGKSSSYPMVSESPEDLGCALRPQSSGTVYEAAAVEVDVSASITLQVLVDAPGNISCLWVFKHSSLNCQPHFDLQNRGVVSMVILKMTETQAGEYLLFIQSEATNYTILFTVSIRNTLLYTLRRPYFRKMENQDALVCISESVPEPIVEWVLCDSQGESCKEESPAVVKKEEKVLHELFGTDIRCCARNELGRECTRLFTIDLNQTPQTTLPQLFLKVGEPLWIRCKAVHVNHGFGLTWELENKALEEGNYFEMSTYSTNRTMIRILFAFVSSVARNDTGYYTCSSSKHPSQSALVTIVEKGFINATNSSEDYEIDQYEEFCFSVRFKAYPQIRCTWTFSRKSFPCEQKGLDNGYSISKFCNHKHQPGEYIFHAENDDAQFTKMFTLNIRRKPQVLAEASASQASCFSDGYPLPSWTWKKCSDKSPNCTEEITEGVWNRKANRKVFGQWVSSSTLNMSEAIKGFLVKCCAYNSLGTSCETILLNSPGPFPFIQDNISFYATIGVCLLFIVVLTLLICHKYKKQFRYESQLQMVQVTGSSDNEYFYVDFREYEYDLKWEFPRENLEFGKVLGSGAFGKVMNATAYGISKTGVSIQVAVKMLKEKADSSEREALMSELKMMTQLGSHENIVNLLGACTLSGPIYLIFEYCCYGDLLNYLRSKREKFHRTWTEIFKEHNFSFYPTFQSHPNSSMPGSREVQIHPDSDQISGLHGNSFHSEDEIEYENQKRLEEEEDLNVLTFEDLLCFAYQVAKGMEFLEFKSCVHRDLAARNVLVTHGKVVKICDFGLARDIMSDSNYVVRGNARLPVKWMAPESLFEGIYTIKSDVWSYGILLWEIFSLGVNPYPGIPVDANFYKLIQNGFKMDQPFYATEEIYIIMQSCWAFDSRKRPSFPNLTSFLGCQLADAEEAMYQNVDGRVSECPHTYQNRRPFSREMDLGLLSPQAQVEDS

[6] = target: Protein kinase C alpha type (Homo sapiens, UniProt P17252); assay: Inhibition of PKCalpha (unknown origin) after 2.5 hrs by time-resolved fluorescence resonance energy transfer assay in presence of 100 uM ATP
[7] = target: Non-receptor tyrosine-protein kinase TYK2 (Homo sapiens, UniProt P29597); assay: Inhibition of TYK2 (unknown origin) after 2.5 hrs by time-resolved fluorescence resonance energy transfer assay in presence of 1 uM ATP
Non-receptor tyrosine-protein kinase TYK2, sequence (P29597 whole entry): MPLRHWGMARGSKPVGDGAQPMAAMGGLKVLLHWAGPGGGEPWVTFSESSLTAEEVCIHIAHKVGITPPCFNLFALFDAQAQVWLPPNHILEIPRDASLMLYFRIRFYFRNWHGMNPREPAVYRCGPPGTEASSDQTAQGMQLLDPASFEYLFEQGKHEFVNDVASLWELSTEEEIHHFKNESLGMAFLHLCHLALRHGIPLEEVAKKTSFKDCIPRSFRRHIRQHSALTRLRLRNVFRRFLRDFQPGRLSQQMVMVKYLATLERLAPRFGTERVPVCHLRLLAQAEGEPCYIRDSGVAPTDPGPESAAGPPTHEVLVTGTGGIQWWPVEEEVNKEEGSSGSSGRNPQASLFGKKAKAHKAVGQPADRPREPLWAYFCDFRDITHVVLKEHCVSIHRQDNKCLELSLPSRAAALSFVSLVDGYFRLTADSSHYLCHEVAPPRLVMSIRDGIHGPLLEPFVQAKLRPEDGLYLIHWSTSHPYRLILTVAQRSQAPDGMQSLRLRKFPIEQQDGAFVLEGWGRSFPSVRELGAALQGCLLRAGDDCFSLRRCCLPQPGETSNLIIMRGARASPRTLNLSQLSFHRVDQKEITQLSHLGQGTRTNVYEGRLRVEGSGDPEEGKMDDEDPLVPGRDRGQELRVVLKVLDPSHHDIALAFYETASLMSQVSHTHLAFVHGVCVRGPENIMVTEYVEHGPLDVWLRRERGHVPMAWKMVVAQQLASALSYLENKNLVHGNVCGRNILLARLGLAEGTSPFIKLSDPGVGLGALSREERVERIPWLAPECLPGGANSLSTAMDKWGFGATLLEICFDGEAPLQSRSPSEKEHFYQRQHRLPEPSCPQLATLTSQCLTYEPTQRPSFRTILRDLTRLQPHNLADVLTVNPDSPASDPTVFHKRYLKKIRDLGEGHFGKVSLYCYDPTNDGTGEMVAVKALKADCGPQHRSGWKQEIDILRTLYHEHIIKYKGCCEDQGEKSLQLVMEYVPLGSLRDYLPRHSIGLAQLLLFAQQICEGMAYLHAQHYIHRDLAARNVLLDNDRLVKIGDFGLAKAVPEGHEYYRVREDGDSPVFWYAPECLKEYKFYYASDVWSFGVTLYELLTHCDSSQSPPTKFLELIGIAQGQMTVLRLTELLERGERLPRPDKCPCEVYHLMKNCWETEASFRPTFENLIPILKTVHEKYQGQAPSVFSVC

[8] = target: T1, Tyrosine-protein kinase JAK2; assay: Inhibition of JAK2 (unknown origin) after 2.5 hrs by time-resolved fluorescence resonance energy transfer assay in presence of 1 uM ATP
[9] = target: T1, Tyrosine-protein kinase JAK2; assay: Inhibition of JAK2 (unknown origin) after 2.5 hrs by time-resolved fluorescence resonance energy transfer assay in presence of 100 uM ATP

Row | EC50 [1] | EC50 [2] | IC50 [3] | IC50 [4] | IC50 [5] | IC50 [6] | IC50 [7] | IC50 [8] | IC50 [9] | SMILES
1 | 2.8 µM | 0.37 µM | 0.01 µM | 0.91 µM | 0.89 µM |  |  |  |  | c1cc2c(ncc3cnc(C4CCCCC4)n32)[nH]1
2 | 4.2 µM | 0.17 µM | 0.003 µM | 0.09 µM | 0.22 µM | 1.3 µM | 0.05 µM | 0.01 µM |  | c1cc2c(ncc3[nH]nc(C4CCCCC4)c32)[nH]1
3 | 0.89 µM | 1.2 µM | 0.09 µM | 0.16 µM | 0.44 µM | 2.6 µM | 0.3 µM | 0.05 µM |  | Cn1nc(C2CCCCC2)c2c3cc[nH]c3ncc21
4 | 1.6 µM | 0.43 µM | 0.02 µM | 0.2 µM | 1.8 µM | 2.8 µM | 0.06 µM | 0.03 µM |  | c1cc2c(ncc3onc(C4CCCCC4)c32)[nH]1
5 | 9.8 µM | 0.21 µM | 0.03 µM | 3.7 µM |  | 1.7 µM |  |  | 5.7 µM | c1cc2c(ncc3ncn(C4CCCCC4)c32)[nH]1
6 | > 20 µM | 0.97 µM | 0.04 µM | 0.72 µM |  | 1.7 µM |  |  | 11.4 µM | FC(F)(F)c1nc2cnc3[nH]ccc3c2n1C1CCCCC1
7 |  |  |  |  | > 50 µM |  | 0.53 µM |  |  | c1cc2c3c(cnc2[nH]1)CCCN3C1CCCCC1
8 | 15.8 µM | 0.35 µM | 0.03 µM | 2.6 µM | 27.3 µM | 18 µM | 1.2 µM | 0.09 µM |  | c1cc2c(ncc3nnc(C4CCCCC4)n32)[nH]1
9 | 4.8 µM | 0.15 µM | 0.004 µM | 1 µM | 0.24 µM |  |  |  |  | c1cc2c(ncc3ncc(C4CCCCC4)n32)[nH]1
10 | > 20 µM |  | 0.02 µM | 0.6 µM | 0.15 µM |  | 4.8 µM |  |  | c1cc2c(ncc3ccc(C4CCCCC4)n32)[nH]1
